Results taken from publication PMC6305398, “Red Fluorescent Chlamydia trachomatis Applied to Live Cell Imaging and Screening for Antibacterial Agents” (Frontiers in Microbiology, 2018).
Entries after “also recorded” stand apart in the source; their conditions may differ. Where two headings read alike, the source gives them in different places.

Experiments:
[1] = system: mCherry expressing C. trachomatis serovar L2 454/Bu; experiment: Primary screen of natural compound library, Chlamydia inclusion count (mCherry imaging and FITC immunostaining in duplicate plates); assay type: cell-based, Chlamydia trachomatis; settings: Chlamydia trachomatis, 10 μM, 48 hpi, HeLa cells, vs DMSO control
Experimental: A general and more detailed protocol for the screening assay is provided in (Supplementary Data Sheet 1) and an overview of the screening method is given in Figure 3. Since inhalation of C. trachomatis aerosols can cause laboratory acquired infections (Sewell, [1995]), all procedures involving handling of live infection in open plates were performed manually inside a class II safety cabinet using 8-channel electronic pipets (Rainin E4 XLS, Mettler Toledo, Barcelona, Spain) and an enclosed aspiration system (Intergra VacuSafe, Zizers, Switzerland).
The primary screen of the 349 open access compound library was performed using the mCherry expressing C. trachomatis serovar L2 454/Bu in clear, flat 96-well plates (Nunc, Delta surface, Thermo Fischer Scientific). The primary screen was done in duplicates in separated plates; one plate was used for mCherry imaging and the other for FITC immunostaining. Cells were seeded at a density of 10,000 cells per well in 100 μl DMEM media 1 day prior to infection in culture media. Chlamydia infection was performed in 30 μl HBSS as described above with a MOI of 0.6 during 1 h at 37°C, 5% CO2. Compounds were diluted to 10 μM in DMEM with a final DMSO concentration of 0.5% and 100 μl per well was added after aspiration of HBSS. The plates were incubated for an additional 47 h at 37°C, 5% CO2 prior to imaging. One of the duplicate plates was used for mCherry imaging and one for FITC immunostaining. For mCherry imaging, HeLa cell nuclei were first stained by addition of 10 μl […] Hoechst per well and incubated at 37°C with 5% CO2 for 20 min. The infected cells were fixed in 4% paraformaldehyde (PFA) for 15 min and washed in PBS before image acquisition. Although fixation was not necessary for the analysis, it inactivated the infectious Chlamydia and enabled later analysis after storage at 4°C. For FITC immunostaining, cells were fixed in 150 μl methanol per well for 10 min, blocked in 1% BSA, 0.25% Tween-20 in PBS and incubated with 1:1,000 polyclonal rabbit anti-chlamydial serum in blocking buffer (Marwaha et al., [2014]). A FITC-conjugated donkey anti-rabbit antibody (Jackson ImmunoResearch) and 1 μg/ml Hoechst staining was used for staining followed by washing with blocking buffer. Images of nuclei (Hoechst-ex386/23 nm) and Chlamydia inclusions (FITC: ex485/20 nm; mCherry: ex549/15 nm) were acquired in the ArrayScan with the 10x objective and counted with the built in software. Chlamydia inclusions in DMSO control wells were used to determine an inclusion size cutoff to exclude small underdeveloped inclusions as well as fluorescent artifacts from the analyses.

[2] = system: mCherry expressing C. trachomatis; experiment: EC50 determination, large inclusion count in infected HeLa cells, FITC immunostaining; assay type: cell-based; settings: Chlamydia trachomatis, read-out: EC50 (95% confidence values)
Experimental: (§1) HeLa cells were inoculated into 96-well plates (Nunc, Corning, New York, USA) with a density of 15,000 cells per well and cultured overnight at 37°C with 5% CO2 in RPMI 1640, supplemented with 10% FBS and 2 mM L-glutamine, and infected the following day with wt or mCherry C. trachomatis in HBSS. At 1 hpi, the inoculum was replaced with RPMI media containing 0.5% DMSO and serial 1:2 dilutions of the tested compounds. The infection was allowed to proceed for 44–48 h before fixation by aspiration of the media and adding methanol for 5 min. Chlamydia inclusions were immunostained as described above. The numbers of large inclusions were counted by the ArrayScan VTI HCS automated scanner. Inhibition of Chlamydia growth was evaluated as the number of inclusions in compound treated infections (evaluated in 12 fields per well, 20x objective) compared to the numbers of inclusions in DMSO treated control infections (% of control). EC50 values are representative of at least three independent experiments. The data analysis was performed using non-linear regression (curve fit) in GraphPad Prism v.5.

HeLa cells = experiment: in vitro; assay type: cell-based; settings: non-toxic = viability not below 70% of vehicle control at 25 μM
Experimental: (§2) HeLa299 cells were inoculated into clear, flat 96-well plates (Nunc, Delta surface, Thermo Fischer Scientific) with a density of 7,000 cells per well and cultured overnight at 37°C with 5% CO2 in […] supplemented with 10% FBS and 2 mM L-glutamine. The following day, the RPMI was replaced with DMEM without phenol red (Life Technologies, Carlsbad, CA, USA) containing 0.5% DMSO with or without test compounds at 25 and 50 μM concentrations incubated at 37°C with 5% CO2 for 48 h. At least three replicate wells for each compound concentration were tested. Wells without cells were used as blank controls. Following this incubation with compounds, cells were washed with DMEM to remove remaining colored compounds and fresh DMEM without phenol red was added before the XTT Cell Proliferation Assay kit was used according to the manufacturer's instructions (ATCC, Manassas, VA, USA). Briefly, activation reagent and XTT reagent were thawed at 37°C, then mixed in a 1:50 ratio with enough volume to add 50 μL to each well. The plates were placed in the 37°C incubator for 2.5 h. The absorbance of each well was then read at 475 nm and 660 nm with a Tecan Infinite m200 plate reader (Tecan, Männedorf, Switzerland). To analyze the data, the 660 nm reading was subtracted from the 475 nm reading to help eliminate non-specific readings from the assay results. Average blank control-well readings were subtracted from those containing cells. Final readings from wells containing compound were compared to DMSO control wells and expressed as percent of control.

in vitro = assay type: cell-based; settings: human, 48 h, percent of DMSO control; for viability at 50 µM: read-out: HeLa cell viability at 50 μM (%) (converted); for viability at 25 µM: read-out: HeLa cell viability at 25 μM (%)
Experimental: as §2

wt C. trachomatis [3] = experiment: EC50 determination, large inclusion count in infected HeLa cells, FITC immunostaining; assay type: cell-based, Chlamydia trachomatis; settings: wt strain, 44-48 h; for EC50: Chlamydia trachomatis, read-out: EC50 (95% confidence values)
Experimental: as §1

mammalian cells = settings: ref Davis et al., 2013; cited from earlier work
[4] = ref Davis et al., 2013; cited from earlier work
[5] = system: mCherry transformed C. trachomatis; experiment: Live real time imaging of C. trachomatis infection (time-lapse 24-72 hpi); assay type: cell-based, Chlamydia trachomatis; settings: HeLa cells
Experimental: The anti-chlamydial effect over time of compound 6 (identified in the above screen) was visualized by a time-lapse experiment. HeLa cells were seeded at a concentration of 10,000 cells per well 1 day prior to infection. Chlamydia infection was performed as described above at MOI 0.6 with mCherry transformed C. trachomatis. Phenol red free DMEM culture media containing 6 or 3 μM 6 or 0.5% DMSO was added at 100 μl per well 1 hpi. Images were acquired with 1 h intervals with the 10x objective acquiring 4 fields per well during 48 h. The red channel was used for autofocusing and therefore imaging was initialized 24 hpi when the mCherry expressing inclusions were detectable, continuing to 72 hpi.

wt C. trachomatis [6] = experiment: Doxycycline susceptibility, large inclusion count after immunostaining; assay type: cell-based; settings: Chlamydia trachomatis; wt strain, HeLa cells, 48 h, FITC immunostaining; read-out: EC50 with 95% confidence interval
[7] = system: mCherry expressing C. trachomatis; experiment: Doxycycline susceptibility, large inclusion count by live mCherry imaging; assay type: cell-based; settings: Chlamydia trachomatis, HeLa, 48 h, read-out: EC50 with 95% confidence interval
Experimental: HeLa 299 cells, cultured to 70% confluence were harvested and seeded into 96-well plates (clear, flat, Nunclon Delta coated, Nunc, Thermo Fischer Scientific, Waltham, MA, USA) at a density of 10,000 per well in culture media (DMEM or RPMI 1640 supplemented with 10% FBS, 2 mM L-glutamine and 50 μg/ml gentamicin). After overnight incubation in 37°C with 5% CO2, adherent cells were infected with 30 μl mCherry expressing Chlamydia per well in HBSS with a multiplicity of infection (MOI) of 0.6. Chlamydia were incubated with the cells for 1 h at 37°C with 5% CO2 after which HBSS was removed and replaced with 100 μl culture media. DNA of host cell nuclei and Chlamydia inclusions were visualized by addition of 10 μl 10 μg/ml Hoechst 20 min prior to imaging. Live images were acquired 48 hpi in an automated HCS microscope (ArrayScan VTI, Thermo Fischer Scientific) using the 10x objective, excitation 549/15 nm for mCherry and excitation 386/23 nm for Hoechst. The number of large Chlamydia inclusions was enumerated using the built in software. An inclusion size cutoff was determined based on the 48 hpi Chlamydia inclusions to include normally developed Chlamydia inclusions and exclude fluorescent artifacts from the analyses. […] Large inclusions were counted by Arrayscan and EC50 values determined using GraphPad Prism v.5 (GraphPad software, La Jolla, CA, USA) with non-linear regression.

[8] = MOI 0.6, FITC immunostaining, read-out: Screen inhibition at 10 μM (%) FITC
[9] = MOI 0.6, mCherry detection, read-out: Screen inhibition at 10 μM (%) mCherry

Row | SMILES | inhibition at 10 µM [1, 8] [%] | inhibition at 10 µM [1, 9] [%] | EC50 [2] [nM] | Toxicity to HeLa cells (authors' call) (HeLa cells) | viability at 50 µM (in vitro) [%] | EC50 (wt C. trachomatis [3]) [nM] | EC50 (95% confidence values) (wt C. trachomatis [3]) | viability at 25 µM (in vitro) [%] | Toxicity in mammalian cells (mammalian cells) | In vitro antimalarial effect, active concentrations [4] | Growth of red fluorescent Chlamydia inclusions in live imaging ([5]; 3 μM, compared to DMSO control) | Red fluorescent Chlamydia inclusions in live imaging ([5]; 6 μM) | EC50 (wt C. trachomatis [6]) [nM] | EC50 [7] [nM]
1 | COCCNC1=CC(=O)c2c(O)c3c(c(O)c2C1=O)C[C@](C)(O)C[C@@H]3O [Compound 1] | 100 | 100 | 2800 | non-toxic | 58.5 | 5300 | low micromolar |  |  |  |  |  |  | 
2 | C[C@]1(O)Cc2c(O)c3c(c(O)c2[C@@H](O)C1)C(=O)C=C(NCCc1ccccc1)C3=O [Compound 2] | 100 | 66 |  | non-toxic | 31 | 23000 |  | ≥ 70 |  |  |  |  |  | 
3 | C[C@]1(O)Cc2c(O)c3c(c(O)c2[C@@H](O)C1)C(=O)C=C(NCCc1ccc(O)cc1)C3=O [Compound 3] | 100 |  |  | toxic | 24 |  |  | 41 ± 2.5 |  |  |  |  |  | 
4 | C[C@]1(O)Cc2c(O)c3c(c(O)c2[C@@H](O)C1)C(=O)C=C(NCCN1CCOCC1)C3=O [Compound 4] | 100 | 98 |  | non-toxic | 74 | 20800 |  | ≥ 70 |  |  |  |  |  | 
5 | NCCc1c[nH]c2c1C(=O)C1=C(NCCS1(=O)=O)C2=O [Compound 6] | 100 | 100 | 1700 | non-toxic | 55 | 2800 |  | 77 ± 0.2 | non-toxic | low nanomolar concentrations | grew at a slower pace; also recorded: continuous growth reduction | not detectable |  | 
6 | CC(=O)NCCc1c[nH]c2c1C(=O)C1=C(NC=CS1(=O)=O)C2=O [Compound 7] | 100 | 99 |  | toxic | 6 |  |  | 17 ± 2 |  |  |  |  |  | 
7 | CC(C)(C)NC(=O)NCCc1c[nH]c2c1C(=O)C1=C(NC=CS1(=O)=O)C2=O [Compound 8] | 100 | 100 |  | toxic | 11 |  |  | 30 ± 7 |  |  |  |  |  | 
8 | CCCCNC(=O)NCCc1c[nH]c2c1C(=O)C1=C(NC=CS1(=O)=O)C2=O [Compound 9] | 100 | 100 |  | toxic | 11.5 |  |  | 37 ± 6.5 |  |  |  |  |  | 
9 | C[C@H]1c2cccc(O)c2C(=O)C2=C(O)[C@]3(O)C(=O)C(C(N)=O)=C(O)[C@@H](N(C)C)[C@@H]3[C@@H](O)[C@@H]21 [doxycycline] |  |  |  |  |  |  |  |  |  |  |  |  | 54.4 | 32.8
